Test system: Nuclear Factor-kB (NF-kB)
Experiment: NF-kB activated by LPS in RAW 264.7 cells (degradation of IKBα)
Type: cell-based, murine
Source text: Parthenolide inhibits Nuclear Factor--kB (NF-kB) transcription factor that has been activated by LPS in the murine macrophage cell line (RAW 264.7) as assessed by the degradation of the protein, IKBα. Activated NF-kB is known to induce the expression of many early response genes including inducible nitric oxide synthetase, cyclooxygenase, and chemokines that are implicated in acute inflammatory responses.

## C=C1C(=O)O[C@H]2[C@H]1CC/C(C)=C/CC[C@@]1(C)O[C@@H]21 [Compound 1, Parthenolide]
  inhibition of NF-kB transcription factor activated by LPS: inhibits

Reference: US5905089A, “Use of sesquiterpene lactones for treatment of severe inflammatory disorders” (Board of Supervisors of Louisiana State University and …, priority 1998, dated 1999)
